Where a SMILES comes first, the peptide text is derived from it. [ ]: non-standard residue; d: D form. NMeC = CN[C@@H](CS)C(=O)O
Tests used:
[1] = Body weight of cisplatin-induced SD rats; type: in vivo, rat; conditions: 30 min prior to cisplatin 5 mg/kg i.p.: compound B 200 mg/kg i.p., compound A 800 mg/kg p.o., amifostine 200 mg/kg i.p.; weighed daily
Description: Healthy male SPF grade SD rats (body weight 250-300 g) were selected. Cisplatin+compound B group: 5 mg/kg i.p.+compound B at 200 mg/kg i.p., with compound B being administered 30 min prior to cisplatin administration Cisplatin+amifostine group: 5 mg/kg i.p.+AMI at 200 mg/kg i.p., with AMI being administered 30 min prior to cisplatin administration Cisplatin+compound A group: 5 mg/kg i.p.+compound A at 800 mg/kg p.o., with compound A being administered 30 min prior to cisplatin administration (1) The SD rats used in the experiment were weighed, labeled, and evenly divided into 5 groups, with 3 SD rats in each group. (2) The compound B, compound A, and AMI groups were respectively administered at the planned concentrations. […] (3) The rats were weighed and recorded daily, and on day 5, blood was taken from the intraocular canthus of the SD rats and placed in an anticoagulant tube.

[2] = tested on: radiation lung injury in C57 male mice; experiment: Protective effect on radiation lung injury (HE staining of lung); type: in vivo; conditions: 517 mpk i.p. 30 min before 17 Gy right lung irradiation; months 2, 4, 6
Description: C57 male mice were randomly divided into 4 groups, namely a blank control group, an irradiation group, a compound B (TFA) irradiation group, and an AMI irradiation group, respectively. The mode of administration for each group was an intraperitoneal injection, 30 min before irradiation. The dosage of administration was 517 mpk, and the irradiation dose to the right lung was 17 Gy. […] Lung tissues were taken at months 2, 4, and 6 for HE staining

[3] = tested on: radiation intestinal injury in C57 male mice; experiment: Protective effect on radiation intestinal injury (HE staining of small intestine); type: in vivo; conditions: 517 mpk i.p. 30 min before 16 Gy abdominal irradiation; fifth day
Description: C57 male mice were randomly divided into 4 groups, namely a blank control group, an irradiation group, a compound B (TFA) irradiation group, and an AMI irradiation group, respectively. The mode of administration for each group was an intraperitoneal injection, 30 min before irradiation. The dosage of administration was 517 mpk, and the abdominal irradiation dose was 16 Gy. On the fifth day, the small intestine tissue was taken for HE staining.

[4] = tested on: radiation-induced hematopoietic system injury in C57 male mice; experiment: Protective effect on radiation-induced hematopoietic system injury (peripheral blood indicators); type: in vivo; conditions: 517 mpk i.p. 30 min before 4 Gy whole body irradiation; day 15
Description: C57 male mice were randomly divided into 6 groups, namely a blank control group, an irradiation group, a compound B (TFA) group, an AMI group, a compound B (TFA) irradiation group, and an AMI irradiation group, respectively. The mode of administration for each group was an intraperitoneal injection, 30 min before irradiation. The dosage of administration was 517 mpk, and the whole body irradiation dose was 4 Gy. On day 15, samples were taken for detecting peripheral blood indicators.

| SMILES | Change in body weight of cisplatin-induced SD rats [1] | Inflammatory cell infiltration / radiation pneumonitis in lung (HE staining) [2] | Changes in the intestinal villi structure (HE staining) [3] | LY % and NE % in the peripheral blood (abnormal differentiation) [4] | Numbers of WBC, RBC and PLT in the peripheral blood [4] |
| --- | --- | --- | --- | --- | --- |
| CNC(=O)[C@H](CS)NC(=O)[C@H](CS)NC [Compound A, (R)-3-mercapto-N—((R)-3-mercapto-1-(methylamino)-1-oxoprop-2-yl)-2-(methylamino)propionamide] (H-[NMeC]-Cys-NHMe) | the degree of decrease was significantly better than that of the cisplatin group | – | – | – | – |
| CNC(=O)[C@H](CS)NC(=O)[C@H](CS)NC(=O)[C@H](CS)NC [Compound B, (R)-3-mercapto-N—((R)-3-mercapto-1-(((R)-3-mercapto-1-(methylamino)-1-oxoprop-2-yl)amino)-1-oxoprop-2-yl)-2-(methylamino)propionamide] (H-[NMeC]-Cys-Cys-NHMe) | the body weight increased rather than decrease | could partially relieve the inflammatory cell infiltration and reduce the occurrence of radiation pneumonitis | milder than that in the irradiation group | could alleviate this abnormal differentiation | could increase the numbers of such cells after irradiation |
